Source: EP1247803A2, “Indolinone compounds suitable for modulation of protein kinases” (Sugen, Inc., priority 1996, dated 1998)

Columns and labels:
PDGF-R = PDGF-R (Homo sapiens, UniProt P09619); experiment: PDGF-R ELISA; format: cell-based
Text: A PDGF-R ELISA is described in International Patent Publication No. WO 96/40116, published December 19, 1996 by Tang et al.

MET = MET biochemical kinase assay; parameters: species or system human; concentration or dose not given beside the values
How it was run: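 MET from cell lysates captured on ELISA plates via rabbit anti-MET cytoplasmic-domain antibody; compounds added and kinase reaction run in ATP and divalent-metal buffer. Receptor phosphotyrosine detected with HRP-conjugated anti-phosphotyrosine antibody and TMB colorimetry.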

EGFR = biological target: T1, EGFR (Homo sapiens, UniProt P00533); experiment: EGFR ELISA assay (in vitro kinase activity, EGFR captured from A431 cell lysate); format: biochemical; parameters: concentration or dose not given beside the values
T1 construct: Add 7 ug A431 cell lysate per well (EGFR source); endogenous in cells; host or cells: A431
How it was run: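 EGFR from A431 lysate was captured on anti-EGFR antibody-coated plates and preincubated with compounds for 30 min. Autophosphorylation ran 5 min with 3 uM ATP and 5 mM MnCl2 (final), stopped with 20 mM EDTA. Phosphotyrosine was detected by anti-pTyr ELISA with ABTS/H2O2, read at 410 nm.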

PDGF-R, sequence (P09619 33-1106, species assumed): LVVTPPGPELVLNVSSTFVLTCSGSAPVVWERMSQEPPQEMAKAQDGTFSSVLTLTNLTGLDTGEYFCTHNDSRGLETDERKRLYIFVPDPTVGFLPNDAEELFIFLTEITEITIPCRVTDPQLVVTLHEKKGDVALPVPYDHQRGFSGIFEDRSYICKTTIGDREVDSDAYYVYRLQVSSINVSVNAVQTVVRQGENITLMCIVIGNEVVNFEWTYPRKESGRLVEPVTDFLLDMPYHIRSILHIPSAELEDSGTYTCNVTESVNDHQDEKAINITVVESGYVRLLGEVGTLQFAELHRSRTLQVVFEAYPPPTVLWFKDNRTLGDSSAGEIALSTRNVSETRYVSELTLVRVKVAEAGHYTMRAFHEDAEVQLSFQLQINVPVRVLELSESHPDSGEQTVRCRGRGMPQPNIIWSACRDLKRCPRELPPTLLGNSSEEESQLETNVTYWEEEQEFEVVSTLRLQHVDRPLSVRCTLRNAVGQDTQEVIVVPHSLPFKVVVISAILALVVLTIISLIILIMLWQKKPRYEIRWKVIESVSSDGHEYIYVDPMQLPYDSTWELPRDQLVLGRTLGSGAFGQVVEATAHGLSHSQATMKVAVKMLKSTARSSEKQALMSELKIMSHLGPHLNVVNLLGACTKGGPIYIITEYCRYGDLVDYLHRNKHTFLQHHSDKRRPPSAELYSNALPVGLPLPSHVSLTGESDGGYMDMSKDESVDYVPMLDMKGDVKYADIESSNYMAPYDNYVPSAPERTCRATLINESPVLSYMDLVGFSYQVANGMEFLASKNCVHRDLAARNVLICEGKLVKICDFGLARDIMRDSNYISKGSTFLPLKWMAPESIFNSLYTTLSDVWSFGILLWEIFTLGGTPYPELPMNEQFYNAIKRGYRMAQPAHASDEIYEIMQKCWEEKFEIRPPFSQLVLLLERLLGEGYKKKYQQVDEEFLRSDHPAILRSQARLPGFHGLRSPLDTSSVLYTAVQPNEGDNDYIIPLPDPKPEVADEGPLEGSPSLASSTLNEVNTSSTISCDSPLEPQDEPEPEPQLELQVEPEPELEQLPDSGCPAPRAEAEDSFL
T1 sequence (P00533 25-1210): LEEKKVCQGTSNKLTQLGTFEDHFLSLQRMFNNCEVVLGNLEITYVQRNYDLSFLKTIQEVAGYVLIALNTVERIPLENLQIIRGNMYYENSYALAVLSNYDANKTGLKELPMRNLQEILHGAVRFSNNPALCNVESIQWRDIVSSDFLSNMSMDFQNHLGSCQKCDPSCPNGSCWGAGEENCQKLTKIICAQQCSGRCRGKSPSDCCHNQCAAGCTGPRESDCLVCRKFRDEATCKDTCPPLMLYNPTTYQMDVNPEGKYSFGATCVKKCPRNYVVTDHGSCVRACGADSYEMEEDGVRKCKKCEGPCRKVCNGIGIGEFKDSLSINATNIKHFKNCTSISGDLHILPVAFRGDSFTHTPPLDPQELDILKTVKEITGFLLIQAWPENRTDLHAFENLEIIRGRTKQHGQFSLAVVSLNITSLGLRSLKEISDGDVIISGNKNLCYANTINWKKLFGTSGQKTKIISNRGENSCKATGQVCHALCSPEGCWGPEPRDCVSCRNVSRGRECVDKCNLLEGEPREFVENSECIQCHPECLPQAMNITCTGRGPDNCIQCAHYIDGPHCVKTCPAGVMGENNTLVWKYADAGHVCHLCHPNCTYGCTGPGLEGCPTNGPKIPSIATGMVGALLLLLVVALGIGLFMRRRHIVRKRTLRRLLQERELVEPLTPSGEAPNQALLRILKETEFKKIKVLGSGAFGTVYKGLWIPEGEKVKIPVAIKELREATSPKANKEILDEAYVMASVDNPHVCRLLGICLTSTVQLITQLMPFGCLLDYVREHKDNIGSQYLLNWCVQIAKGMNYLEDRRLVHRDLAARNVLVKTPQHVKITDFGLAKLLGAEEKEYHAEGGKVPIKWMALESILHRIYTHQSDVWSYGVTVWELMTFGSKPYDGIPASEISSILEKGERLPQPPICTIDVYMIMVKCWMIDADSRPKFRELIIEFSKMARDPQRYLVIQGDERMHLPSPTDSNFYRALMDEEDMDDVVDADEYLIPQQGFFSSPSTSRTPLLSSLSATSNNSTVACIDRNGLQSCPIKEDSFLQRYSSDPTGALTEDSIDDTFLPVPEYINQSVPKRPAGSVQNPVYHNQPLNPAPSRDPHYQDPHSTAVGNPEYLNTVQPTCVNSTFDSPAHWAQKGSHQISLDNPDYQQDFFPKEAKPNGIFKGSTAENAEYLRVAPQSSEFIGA

SMILES: O=C1Nc2ccc(I)cc2C1=Cc1sccc1Br [10725/B02]
- PDGF Kinase %Inhibition (PDGF-R): -7.5%
- Met Kinase % Inhibition (MET): 66.9%
- Biochem EGFR %Inhibition (EGFR): 2.5%

SMILES: O=C1Nc2ccc(CCCl)cc2C1=Cc1cccc(Br)c1 [10723/G10]
- PDGF Kinase %Inhibition (PDGF-R): -27.8%
- Met Kinase % Inhibition (MET): 40.7%
- Biochem EGFR %Inhibition (EGFR): -4.1%

SMILES: O=C1Nc2c(Br)cc(Br)cc2C1=Cc1sccc1Br [10725/A02]
- PDGF Kinase %Inhibition (PDGF-R): -14.2%
- Met Kinase % Inhibition (MET): 46.6%
- Biochem EGFR %Inhibition (EGFR): 3.9%

SMILES: CNS(=O)(=O)c1ccc2c(c1)C(=Cc1cc3ccccc3o1)C(=O)N2 [10724/D07]
- PDGF Kinase %Inhibition (PDGF-R): 7.0%
- Met Kinase % Inhibition (MET): 38.1%
- Biochem EGFR %Inhibition (EGFR): 25.6%

SMILES: O=C1Nc2ccc(S(=O)(=O)Nc3ccc(C(F)(F)F)cc3)cc2C1=Cc1ccc([N+](=O)[O-])c(O)c1 [10724/E04]
- PDGF Kinase %Inhibition (PDGF-R): -32.6%
- Met Kinase % Inhibition (MET): 93.3%
- Biochem EGFR %Inhibition (EGFR): 8.9%

SMILES: O=C1Nc2ccc(S(=O)(=O)Nc3ccc(C(F)(F)F)cc3)cc2C1=Cc1cc2c3c(c1O)CCCN3CCC2 [10724/E05]
- PDGF Kinase %Inhibition (PDGF-R): -7.6%
- Met Kinase % Inhibition (MET): 70.3%
- Biochem EGFR %Inhibition (EGFR): 0.5%

SMILES: O=C1Nc2c(Br)cc(Br)cc2C1=Cc1ccc(O)c([N+](=O)[O-])c1 [10724/A03]
- PDGF Kinase %Inhibition (PDGF-R): 0.1%
- Met Kinase % Inhibition (MET): 30.7%
- Biochem EGFR %Inhibition (EGFR): 17.2%

SMILES: CNS(=O)(=O)c1ccc2c(c1)C(=Cc1ccc(N(C)C)c3ccccc13)C(=O)N2 [10724/D02]
- PDGF Kinase %Inhibition (PDGF-R): -9.6%
- Met Kinase % Inhibition (MET): 37.5%
- Biochem EGFR %Inhibition (EGFR): 40.5%

SMILES: O=C1Nc2ccc(S(=O)(=O)Nc3ccc(C(F)(F)F)cc3)cc2C1=Cc1cccn1-c1ccc(Cl)cc1 [10724/E09]
- PDGF Kinase %Inhibition (PDGF-R): 21.0%
- Met Kinase % Inhibition (MET): 27.0%
- Biochem EGFR %Inhibition (EGFR): 6.3%

SMILES: O=C1Nc2c(Br)cc(Br)cc2C1=Cc1cc2ccccc2o1 [10724/A07]
- PDGF Kinase %Inhibition (PDGF-R): 16.1%
- Met Kinase % Inhibition (MET): 58.7%
- Biochem EGFR %Inhibition (EGFR): 18.3%

SMILES: Cc1csc2sc(C=C3C(=O)Nc4ccc(CCCl)cc43)c(C)c12 [10724/G11]
- PDGF Kinase %Inhibition (PDGF-R): -29.1%
- Met Kinase % Inhibition (MET): 11.2%
- Biochem EGFR %Inhibition (EGFR): -29.5%

SMILES: O=C1Nc2ccc(I)cc2C1=Cc1ccc(N2CCOCC2)cc1 [10725/B08]
- PDGF Kinase %Inhibition (PDGF-R): 29.4%
- Met Kinase % Inhibition (MET): 66.7%
- Biochem EGFR %Inhibition (EGFR): 41.8%

SMILES: Cc1cc(C=C2C(=O)Nc3ccc(I)cc32)[nH]n1 [10725/B05]
- PDGF Kinase %Inhibition (PDGF-R): 44.7%
- Met Kinase % Inhibition (MET): 68.3%
- Biochem EGFR %Inhibition (EGFR): 20.4%

SMILES: CC(C)c1cc(C=C2C(=O)Nc3c(Br)cc(Br)cc32)cc(C(C)C)c1O [10724/A06]
- PDGF Kinase %Inhibition (PDGF-R): 30.7%
- Met Kinase % Inhibition (MET): 46.8%
- Biochem EGFR %Inhibition (EGFR): 1.4%

SMILES: O=C1Nc2ccc(CCCl)cc2C1=Cc1cc2ccccc2o1 [10724/G07]
- PDGF Kinase %Inhibition (PDGF-R): -41.6%
- Met Kinase % Inhibition (MET): 2.3%
- Biochem EGFR %Inhibition (EGFR): -11.7%

SMILES: Cc1csc2sc(C=C3C(=O)Nc4ccc(I)cc43)c(C)c12 [10724/B11]
- PDGF Kinase %Inhibition (PDGF-R): 23.0%
- Met Kinase % Inhibition (MET): 43.0%
- Biochem EGFR %Inhibition (EGFR): -23.2%

SMILES: CNS(=O)(=O)c1ccc2c(c1)C(=Cc1cccn1-c1ccc(Cl)cc1)C(=O)N2 [10724/D09]
- PDGF Kinase %Inhibition (PDGF-R): 18.9%
- Met Kinase % Inhibition (MET): 16.1%
- Biochem EGFR %Inhibition (EGFR): -15.3%

SMILES: Cc1c(Br)ccc2c1C(=Cc1ccc(N(C)C)c3ccccc13)C(=O)N2 [10724/C02]
- PDGF Kinase %Inhibition (PDGF-R): -9.0%
- Met Kinase % Inhibition (MET): 40.7%
- Biochem EGFR %Inhibition (EGFR): 53.6%

SMILES: O=C1Nc2ccc(I)cc2C1=Cc1cc2ccccc2o1 [10724/B07]
- PDGF Kinase %Inhibition (PDGF-R): 27.2%
- Met Kinase % Inhibition (MET): 57.9%
- Biochem EGFR %Inhibition (EGFR): 44.0%

SMILES: O=C1Nc2ccc(I)cc2C1=Cc1cccn1-c1ccc(Cl)cc1 [10724/B09]
- PDGF Kinase %Inhibition (PDGF-R): 25.8%
- Met Kinase % Inhibition (MET): 43.8%
- Biochem EGFR %Inhibition (EGFR): 8.7%

SMILES: COC(=O)Cc1c(Cl)[nH]c(C=C2C(=O)Nc3ccc(I)cc32)c1C(=O)OC [10725/B09]
- PDGF Kinase %Inhibition (PDGF-R): 43.8%
- Met Kinase % Inhibition (MET): 65.7%
- Biochem EGFR %Inhibition (EGFR): 72.3%

SMILES: Cc1cc(C=C2C(=O)Nc3c(Br)cc(Br)cc32)[nH]n1 [10725/A05]
- PDGF Kinase %Inhibition (PDGF-R): 13.1%
- Met Kinase % Inhibition (MET): 47.5%
- Biochem EGFR %Inhibition (EGFR): 7.9%

SMILES: CC(C)c1cc(C=C2C(=O)Nc3ccc(CCCl)cc32)cc(C(C)C)c1O [10724/G06]
- PDGF Kinase %Inhibition (PDGF-R): -6.9%
- Met Kinase % Inhibition (MET): 20.3%
- Biochem EGFR %Inhibition (EGFR): 3.2%

SMILES: CCc1ccc(C=C2C(=O)Nc3ccc(S(=O)(=O)NC)cc32)o1 [10724/D10]
- PDGF Kinase %Inhibition (PDGF-R): 38.3%
- Met Kinase % Inhibition (MET): 59.6%
- Biochem EGFR %Inhibition (EGFR): 12.7%

SMILES: CCc1ccc(C=C2C(=O)Nc3ccc(Br)c(C)c32)o1 [10724/C10]
- PDGF Kinase %Inhibition (PDGF-R): 27.2%
- Met Kinase % Inhibition (MET): 91.2%
- Biochem EGFR %Inhibition (EGFR): 13.8%

SMILES: CNS(=O)(=O)c1ccc2c(c1)C(=Cc1cc(C(C)C)c(O)c(C(C)C)c1)C(=O)N2 [10724/D06]
- PDGF Kinase %Inhibition (PDGF-R): 40.4%
- Met Kinase % Inhibition (MET): 23.0%
- Biochem EGFR %Inhibition (EGFR): -12.4%

SMILES: CNS(=O)(=O)c1ccc2c(c1)C(=Cc1cc3c4c(c1O)CCCN4CCC3)C(=O)N2 [10724/D05]
- PDGF Kinase %Inhibition (PDGF-R): 35.6%
- Met Kinase % Inhibition (MET): 36.1%
- Biochem EGFR %Inhibition (EGFR): -8.4%

SMILES: Cc1csc2sc(C=C3C(=O)Nc4c(Br)cc(Br)cc43)c(C)c12 [10724/A11]
- PDGF Kinase %Inhibition (PDGF-R): 29.3%
- Met Kinase % Inhibition (MET): 27.2%
- Biochem EGFR %Inhibition (EGFR): -16.6%

SMILES: COc1cc(C)cc(O)c1C=C1C(=O)Nc2ccc(I)cc21 [10725/B06]
- PDGF Kinase %Inhibition (PDGF-R): 31.3%
- Met Kinase % Inhibition (MET): 53.3%
- Biochem EGFR %Inhibition (EGFR): -13.7%

SMILES: Cc1c(Br)ccc2c1C(=Cc1cc(C(C)C)c(O)c(C(C)C)c1)C(=O)N2 [10724/C06]
- PDGF Kinase %Inhibition (PDGF-R): 34.9%
- Met Kinase % Inhibition (MET): 15.4%
- Biochem EGFR %Inhibition (EGFR): -2.4%

SMILES: O=C1Nc2c(Br)cc(Br)cc2C1=Cc1cc2c3c(c1O)CCCN3CCC2 [10724/A05]
- PDGF Kinase %Inhibition (PDGF-R): 5.0%
- Met Kinase % Inhibition (MET): 68.4%
- Biochem EGFR %Inhibition (EGFR): 20.3%

SMILES: CCc1ccc(C=C2C(=O)Nc3ccc(I)cc32)o1 [10724/B10]
- PDGF Kinase %Inhibition (PDGF-R): 9.8%
- Met Kinase % Inhibition (MET): 95.0%
- Biochem EGFR %Inhibition (EGFR): 76.2%

SMILES: Cc1c(Br)ccc2c1C(=Cc1cccn1-c1ccc(Cl)cc1)C(=O)N2 [10724/C09]
- PDGF Kinase %Inhibition (PDGF-R): 20.3%
- Met Kinase % Inhibition (MET): 5.3%
- Biochem EGFR %Inhibition (EGFR): 1.0%

SMILES: CNS(=O)(=O)c1ccc2c(c1)C(=Cc1ccc(O)c([N+](=O)[O-])c1)C(=O)N2 [10724/D03]
- PDGF Kinase %Inhibition (PDGF-R): -15.2%
- Met Kinase % Inhibition (MET): 18.2%
- Biochem EGFR %Inhibition (EGFR): 2.5%

SMILES: CCc1ccc(C=C2C(=O)Nc3c(Br)cc(Br)cc32)o1 [10724/A10]
- PDGF Kinase %Inhibition (PDGF-R): 28.6%
- Met Kinase % Inhibition (MET): 83.8%
- Biochem EGFR %Inhibition (EGFR): 40.0%

SMILES: CCc1ccc(C=C2C(=O)Nc3ccc(S(=O)(=O)Nc4ccc(C(F)(F)F)cc4)cc32)o1 [10724/E10]
- PDGF Kinase %Inhibition (PDGF-R): 34.9%
- Met Kinase % Inhibition (MET): 84.0%
- Biochem EGFR %Inhibition (EGFR): 41.4%

SMILES: O=C1Nc2ccc(S(=O)(=O)Nc3ccc(C(F)(F)F)cc3)cc2C1=Cc1ccc(O)c([N+](=O)[O-])c1 [10724/E03]
- PDGF Kinase %Inhibition (PDGF-R): 14.7%
- Met Kinase % Inhibition (MET): 85.8%
- Biochem EGFR %Inhibition (EGFR): 33.1%

SMILES: O=C1Nc2ccc(CCCl)cc2C1=Cc1cc2c3c(c1O)CCCN3CCC2 [10724/G05]
- PDGF Kinase %Inhibition (PDGF-R): -10.3%
- Met Kinase % Inhibition (MET): 61.0%
- Biochem EGFR %Inhibition (EGFR): -20.8%

SMILES: O=C1Nc2c(Br)cc(Br)cc2C1=Cc1ccc(N2CCOCC2)cc1 [10725/A08]
- PDGF Kinase %Inhibition (PDGF-R): 14.1%
- Met Kinase % Inhibition (MET): 45.3%
- Biochem EGFR %Inhibition (EGFR): 10.9%

SMILES: O=C1Nc2ccc(CCCl)cc2C1=Cc1ccc([N+](=O)[O-])c(O)c1 [10724/G04]
- PDGF Kinase %Inhibition (PDGF-R): -12.4%
- Met Kinase % Inhibition (MET): 71.0%
- Biochem EGFR %Inhibition (EGFR): 12.9%

SMILES: Cc1c(Br)ccc2c1C(=Cc1sc3scc(C)c3c1C)C(=O)N2 [10724/C11]
- PDGF Kinase %Inhibition (PDGF-R): 23.0%
- Met Kinase % Inhibition (MET): 4.9%
- Biochem EGFR %Inhibition (EGFR): 0.7%

SMILES: CC(C)c1cc(C=C2C(=O)Nc3ccc(I)cc32)cc(C(C)C)c1O [10724/B06]
- PDGF Kinase %Inhibition (PDGF-R): 43.2%
- Met Kinase % Inhibition (MET): 52.1%
- Biochem EGFR %Inhibition (EGFR): 30.9%
